The values that follow come from US20110212933A1, “Antiseptic Compositions for the Treatment of Infections” (priority 2008, published 2011).

The test system of data set [1] is guinea pigs. In words: Dermal sensitization test in guinea pigs (Buehler).
Data set [2] relates to guinea pigs. As to conditions: Positive Control animals, historical data, cited from earlier work; for Individual Bodyweight Initial: baseline.
Data set [3] concerns guinea pigs. As to conditions: 0.4 mL, historical data, cited from earlier work.
In data set [4] the test system is S. aureus. How it is done: (§1) Phenol Resistance Control: The phenol resistance of the test organisms were determined per the AOAC method.
(§2) Final phenol dilutions were made the day of use from stock phenol within manufacturer's stability specification.

Data set [5] has as its system S. cholerasuis. How it is done: as §1, §2
For data set [6], the system named is P. aeruginosa. How it is done: as §1, §2
For data set [7], the system named is T. mentagrophytes. How it is done: Phenol Resistance Control: The phenol resistance of Trichophyton mentagrophytes was determined per the AOAC method. Final phenol dilutions were made the day of use from stock phenol within manufacturer's stability specification.
Setting [8] is: historical positive naive control animals, 0.04% in acetone.
Setting [9] is: Dilution 1:60, Exposure Time 5 Minutes.
Setting [10] is: Dilution 1:60, Exposure Time 10 Minutes.
The mark [11] stands for this setting: Dilution 1:70, Exposure Time 5 Minutes.
[12] abbreviates: Dilution 1:70, Exposure Time 10 Minutes.
[13] abbreviates: Dilution 1:90, Exposure Time 5 Minutes.
[14] abbreviates: Dilution 1:90, Exposure Time 10 Minutes.
[15] abbreviates: Dilution 1:90, Exposure Time 15 Minutes.

“And” between values parts separate entries of the source, which are not always exact repeats. Identical values can stand only once. Like-named read-outs stand apart in the source and are kept apart here.

In the case of `O=[N+]([O-])c1ccc(Cl)c([N+](=O)[O-])c1` [DNCB, 1-Chloro-2,4-Dinitrobenzene], in data set [1] (historical positive control animals, 0.08% in 80% aqueous ethanol), the “erythema score, induction phase” value is 0.5-3. Besides, the “sites with very faint erythema (0.5) 24 hours after challenge” value in data set [1] (setting [8]) is “two”. In data set [1] (setting [8]), the “time for irritation to clear from affected sites” value was not above 48 h. Besides, the “Individual Bodyweight Initial” value in data set [2] (female guinea pigs) is 393 g and 404 g and 415 g and 411 g and 408 g and 428 g and 372 g; in data set [2] (male guinea pigs), 406 g (2×) and 379 g and 413 g and 423 g and 408 g and 386 g and 407 g. Also, the “Individual Bodyweight Day After Challenge” value in data set [2] (female guinea pigs) was 568 g and 660 g and 581 g and 536 g and 591 g and 544 g and 609 g; in data set [2] (male guinea pigs), 579 g and 544 g and 600 g and 618 g and 668 g and 551 g and 639 g and 599 g. Besides, the “Preliminary Irritation Testing Score” value was 0 in data set [3] (Concentration 0.02% w/w in acetone); 0 and 0.5 in data set [3] (Concentration 0.03% w/w in acetone); 0 and 0.5 in data set [3] (Concentration 0.04% w/w in acetone).

For the compound `Oc1ccccc1` [Phenol, phenol], the “Phenol Resistance, growth in subculture” value in data set [4] (setting [9]) was “+”; in data set [4] (setting [10]) it was “+”; in data set [4] (Dilution 1:60, Exposure Time 15 Minutes), 0; in data set [4] (setting [11]) it was “+”; in data set [4] (setting [12]), “+”; in data set [4] (Dilution 1:70, Exposure Time 15 Minutes), “+”. The “Phenol Resistance, growth in subculture” value was “+” in data set [5] (setting [13]); 0 in data set [5] (setting [14]); 0 in data set [5] (setting [15]); “+” in data set [5] (Dilution 1:100, Exposure Time 5 Minutes); “+” in data set [5] (Dilution 1:100, Exposure Time 10 Minutes); 0 in data set [5] (Dilution 1:100, Exposure Time 15 Minutes). The “Phenol Resistance, growth in subculture” value is on record as 0 in data set [6] (Dilution 1:80, Exposure Time 5 Minutes); 0 in data set [6] (Dilution 1:80, Exposure Time 10 Minutes); 0 in data set [6] (Dilution 1:80, Exposure Time 15 Minutes); “+” in data set [6] (setting [13]); “+” in data set [6] (setting [14]); “+” in data set [6] (setting [15]). In addition, the “Phenol Resistance, growth in subculture” value is 0 in data set [7] (setting [9]), 0 in data set [7] (setting [10]), “+” in data set [7] (setting [11]) and “+” in data set [7] (setting [12]).
